# Patent publication US20110020457A1, “POLYMER-SURFACTANT NANOPARTICLES FOR SUSTAINED RELEASE OF COMPOUNDS” (Wayne State University, priority 2006, published 2011)
# “Also recorded” adds a separate entry of the source. Like-named read-outs stand apart in the source and are kept apart here.
# What was measured:
# [1] = pH 7.4
# Protocol: In vitro release studies: In vitro release of nanoparticle-encapsulated drug was determined under sink conditions. The term “sink conditions” refers to release conditions in which the volume of the buffer used is sufficient to dissolve all of the drug present in the delivery system. Such conditions are used to assure that the amount of drug released is not limited by the degree of solubility in the buffer or solvent used. Nanoparticles (˜5 mg) were dispersed in 0.5 ml of phosphate-buffered saline (PBS, pH 7.4, 0.15M) and suspended in DispoDialyzer® (10 kDa MWCO, Pierce) dialysis tubes. These were then placed in a 15-ml centrifuge tube containing 10 ml of PBS. The whole assembly was shaken at 100 rpm and 37.0±0.5° C. in an orbital shaker (Brunswick Scientific, C24 incubator shaker, NJ). […] Drug concentration in the release samples was determined as in drug loading determinations. Stability of different drugs under in vitro release conditions was determined and the drug release profile was corrected for degradation, if any.
# Initially, the stability of these drugs under the release conditions (PBS, pH 7.4 and 37° C.) were investigated.
# [2] = cited from earlier work
# [3] = also after multiple dosing; cited from earlier work
# MCF-7 cells [4] = assay: Cytotoxicity of methylene blue PDT; conditions: 0.3 or 0.6 μM, no light
# ROS = assay: Nanoparticle-mediated ROS generation ex vitro (APF fluorescence); conditions: photo-activated
# Source text: PBS and empty nanoparticles were used as negative controls. To determine the effect of dose of light on the amount of ROS generated, above samples were photo-activated with 10 consecutive doses of light (1200 mJ/cm^2 per dose) measuring fluorescence after each illumination. […] Experiments performed as above but without light irradiation were used as light negative controls.
# NCI-ADR/RES cells [5] = assay: Cytotoxicity in drug-resistant cells, MTS assay (Example 5); format: cell-based
# Protocol: (§1) For cytotoxicity studies, NCI-ADR/RES or MCF-7 cells were seeded in 96-well plates at a seeding density of 5000-10000 cells per well per 0.1 mL of medium and allowed to attach overnight. […] Untreated cells and empty nanoparticles were used as controls. […] Cytotoxicity was determined over a period of 10 days using a commercially available MTS assay (Promega). Results were analyzed by using an ANOVA. Differences were considered significant at P<0.05.
# MCF-7 cells [6] = assay: Cytotoxicity in drug-sensitive cells, MTS assay (Example 5); format: cell-based, Human; conditions: doxorubicin in solution
# Protocol: as §1
# [7] = tested on: JC tumors (doxorubicin-resistant mammary adenocarcinoma); assay: Tumor growth after combination PDT and chemotherapy in drug-resistant tumor; format: in vivo, female Balb/c mice; conditions: single i.v. dose, 4 mg/kg doxorubicin
# Source text: FIG. 16. Nanoparticle-mediated combination PDT and chemotherapy overcame tumor drug resistance in vivo. […] About twenty four hours after treatment administration, tumors were exposed to light of 665 nm wavelength (50 J/cm^2). Animals were then monitored for tumor growth. The results are shown as percent increase in tumor volume as a function of time after treatment (days), with the various treatment protocols.
# Nanoparticle-mediated combination PDT-chemotherapy inhibited drug-resistant tumor growth. The in vivo efficacy of nanoparticle-mediated combination chemo- and photodynamic therapy was studied in a mouse model of drug-resistant tumor. Drug-resistant JC tumors (doxorubicin-resistant mammary adenocarcinoma) grown subcutaneously in female Balb/c mice were used in these experiments. Mice were administered a single i.v. dose of the different treatments. […] About 24 hrs after treatment administration, tumors were exposed to light of 665 nm wavelength (50 J/cm^2). Animals were then monitored for tumor growth.
# NCI-ADR/RES cells [8] = assay: Intracellular distribution of doxorubicin by fluorescence microscopy; format: cell-based; conditions: 2.5 μg/mL doxorubicin, 2 h
# Protocol: At the end of the treatment period, cells were washed three times with cold PBS and then lysed using 100 μL of cell culture lysis reagent (CCLR; Promega). The protein content of the cell lysates was determined using the Pierce (Rockford, Ill.) BCA protein assay. Cell lysates were then mixed with 300 μL of methanol and incubated at 37° C. for 6 h at 100 rpm. Samples were centrifuged at 14 000 rpm for 10 min at 4° C. The concentration of rhodamine in the methanolic extract was determined by HPLC as described before. Data were expressed as rhodamine accumulation normalized to total cell protein. For fluorescence microscopy, the uptake and intracellular distribution of doxorubicin in NCI-ADR/RES cells were determined qualitatively using fluorescence microscopy. Cells ([…]) were seeded on coverslips placed in 35 mm dishes.
# At 2 h post-treatment, cells were rinsed with drug-free medium and incubated with 75 nM Lysotracker Green (Invitrogen) for 30 min. Cells were then washed and counterstained with DAPI (4′,6-diamidino-2-phenylindole, Invitrogen). Images were captured with a BX60 Olympus fluorescence microscope. Images captured using red, blue, and green filters were overlaid to determine localization and association of doxorubicin-associated red fluorescence in the nucleus and endolysosomes, respectively.
compound,measurement,setting,value
"O=C(O)Cc1ccccc1Nc1c(Cl)cccc1Cl [Diclofenac, diclofenac sodium]",Stability under the release conditions,[1],stable
"CCCCC(CC)COC(=O)CC(C(=O)OCC(CC)CCCC)S(=O)(=O)[O-].[Na+] (stereo not drawn) [AOT, dioctylsodium sulfosuccinate]",pKa,[2]; sulfonic group,< 1
same,Elimination and accumulation in the body,[3],"easily removed from the body through renal elimination, and does not accumulate"
"CN(C)c1ccc2nc3ccc(=[N+](C)C)cc-3sc2c1 [methylene blue, Methylene blue]",Cytotoxic effect without light-activation,MCF-7 cells [4],no significant effect
same,Increase in fluorescence at 0.6 μM compared to 0.3 μM,ROS,2 fold
Clc1cccc(Cl)c1N=C1NCCN1 [Clonidine],Stability under the release conditions,[1],stable
COc1ccc(CCN(C)CCCC(C#N)(c2ccc(OC)c(OC)c2)C(C)C)cc1OC (stereo not drawn) [Verapamil],Effect on resistance to doxorubicin,NCI-ADR/RES cells [5]; verapamil 23.0 μg/mL with doxorubicin 0.4 μg/mL in solution,reversed the resistance to doxorubicin
COc1cccc2c1C(=O)c1c(O)c3c(c(O)c1C2=O)C[C@@](O)(C(=O)CO)C[C@@H]3O[C@H]1C[C@H](N)[C@H](O)[C@H](C)O1 [Doxorubicin],Stability under the release conditions,[1],"biphasic, first-order degradation profile"
same,pKa,[2],~8.2
same,Ionized fraction,[2]; pH 7.4,about 86%
same,Cytotoxicity in drug-sensitive cells,MCF-7 cells [6],dose-dependent cytotoxicity
same,Concentration required to induce cytotoxicity,"NCI-ADR/RES cells [5]; doxorubicin in solution, drug-resistant cells",> 50 µg/mL
same,Therapeutic effect on tumor growth,[7],did not show a significant therapeutic effect
same,Doxorubicin in nuclei of cells,NCI-ADR/RES cells [8],No or insignificant doxorubicin fluorescence
same,Intracellular distribution of doxorubicin,NCI-ADR/RES cells [8]; listed as Free doxorubicin,"diffuse distribution within the cells, with a significant fraction appearing in vesicles located near the cell membrane; also recorded: present near the cell surface"
